Target: T1, human MC5R (hMC5R) (Homo sapiens, UniProt P33032)
T1 construct: purchased Perkin Elmer RBXMC5M400UA
Assay: Human MC5R radioligand binding assay ([125I] NDP-MSH displacement)
Details: hMC5R membranes, [125I] NDP-MSH; tested as trifluoroacetate or hydrochloride salts or free bases; read-out: MC5R radioligand IC50
Procedure: Assessments of compound binding to human MC5R (hMC5R) by displacement of an ^125I-labeled NDP-MSH receptor ligand peptide were performed essentially as described in the data sheets produced by Perkin Elmer to accompany their frozen hMC5R membranes (Perkin Elmer catalog number RBXMC5M400UA).
Na^125I (0.5 mCi, 17.4 Ci/mg) was added to 50 μL sodium phosphate (50 mM, pH 7.4) in an eppendorf tube precoated with IODOGEN. After incubation for 10 mins the phosphate buffer containing the iodine was added to NDP-MSH (10 ul at 1 mg/mL) in a separate eppendorf tube. This was incubated for a further 10 mins. The iodinated NDP-MSH was purified by HPLC on a Zorbax SB 300 column using solvent A: 0.05% TFA and solvent B: 90% acetonitrile 0.045% TFA with a linear gradient, 0-67% B over 60 mins. The ^125I NDP-MSH eluted at 52 min after the unlabeled starting material (48 min) and was counted and stored in the freezer.
Incubation buffer: 25 mM HEPES-KOH (pH 7.0), 1.5 mM CaCl2, 1 mM MgSO4, 0.1 M NaCl, 1 mM 1,10-phenanthroline, and 1 Complete™ protease inhibitor tablet/100 mL (Roche, catalog number 1873580)
Perkin Elmer frozen hMC5 membranes: catalog number RBXMC5M400UA, 0.4 mL/vial; 400 microassays/vial. 0.78 mg/mL protein concentration
Vials of frozen membranes were thawed rapidly immediately before use, diluted with binding buffer and vortexed. Resuspended membranes were kept on ice until they were added to the wells of the plate.
Assays were performed in 96 well polypropylene plates. […] This was incubated for 1 hr at 37° C. […] Non-specific binding just under 5%.
Representative compounds of the present invention were tested for binding in the hMC5R assay as in Example 46, as listed in Table 3. The compounds were tested as their trifluoroacetate or hydrochloride salts, or as their free bases.

T1 sequence (P33032 whole entry): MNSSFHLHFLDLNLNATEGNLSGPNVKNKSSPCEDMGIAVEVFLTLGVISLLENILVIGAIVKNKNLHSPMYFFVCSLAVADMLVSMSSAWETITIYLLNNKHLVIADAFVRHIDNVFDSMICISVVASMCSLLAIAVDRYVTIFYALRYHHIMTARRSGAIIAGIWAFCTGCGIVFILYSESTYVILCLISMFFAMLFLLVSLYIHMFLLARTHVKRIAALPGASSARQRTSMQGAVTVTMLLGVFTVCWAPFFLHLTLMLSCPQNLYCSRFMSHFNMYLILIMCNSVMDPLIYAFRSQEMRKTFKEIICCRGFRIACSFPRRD

IC50 [nM] | SMILES
< 1000 | N=C(N)NOCC[C@@H]1N[C@H](CNC(=O)c2ccc3ccccc3c2)CCN(CC(c2ccccc2)c2ccccc2)C1=O [Compound 46, N-(((3S,5S)-1-(2,2-diphenylethyl)-3-(2-(guanidinooxy)ethyl)-2-oxo-1,4-diazepan-5-yl)methyl)-2-naphthamide]
< 1000 | O=C(NC[C@@H]1CCN(CC(c2ccccc2)c2ccccc2)C(=O)[C@H](CCC2CCCCC2)N1)c1ccc2ccccc2c1 [Compound 59, N-(((3S,5S)-3-(2-cyclohexylethyl)-1-(2,2-diphenylethyl)-2-oxo-1,4-diazepan-5-yl)methyl)-2-naphthamide]
< 1000 | O=C(NC[C@@H]1CCN(CC(c2ccccc2)c2ccccc2)C(=O)[C@H](Cc2ccccc2)N1)c1ccc2ccccc2c1 [Compound 61, N-(((3S,5S)-3-benzyl-1-(2,2-diphenylethyl)-2-oxo-1,4-diazepan-5-yl)methyl)-2-naphthamide]
< 1000 | O=C(/C=C/c1ccc(Cl)cc1)NC[C@@H]1CCN(CC(c2ccccc2)c2ccccc2)C(=O)[C@H](CC(=O)N2CCCCC2)N1 [Compound 65, (E)-3-(4-chlorophenyl)-N-(((3S,5S)-1-(2,2-diphenylethyl)-2-oxo-3-(2-oxo-2-(piperidin-1-yl)ethyl)-1,4-diazepan-5-yl)methyl)acrylamide]
< 1000 | Nc1ccccc1C[C@@H]1N[C@H](CNC(=O)/C=C/c2ccc(Cl)cc2)CCN(CC(c2ccccc2)c2ccccc2)C1=O [Compound 68]
< 1000 | CCCC[C@@H]1N[C@H](CNC(=O)c2ccc3cc(Cl)ccc3c2)CCN(C[C@@H](CC)c2ccccc2)C1=O [Compound 70, N-(((3S,5S)-3-butyl-2-oxo-1-((S)-2-phenylbutyl)-1,4-diazepan-5-yl)methyl)-6-chloro-2-naphthamide]
< 1000 | CCCCN(C)C(=O)CC[C@@H]1N[C@H](CNC(=O)c2ccc3ccccc3c2)CCN(C[C@@H](CC)c2ccccc2)C1=O [Compound 72, N-(((3S,5S)-3-(3-(butyl(methyl)amino)-3-oxopropyl)-2-oxo-1-((S)-2-phenylbutyl)-1,4-diazepan-5-yl)methyl)-2-naphthamide]
< 10000 | CC[C@H](CN1CC[C@@H](CNC(=O)c2ccc3cc(Cl)ccc3c2)N[C@@H](CCC2CCCCC2)C1=O)c1ccccc1 [Compound 74, 6-chloro-N-(((3S,5S)-3-(2-cyclohexylethyl)-2-oxo-1-((S)-2-phenylbutyl)-1,4-diazepan-5-yl)methyl)-2-naphthamide]
< 100 | CCCCCC[C@@H]1N[C@H](CNC(=O)c2ccc3cc(Cl)ccc3c2)CCN(C[C@@H](CC)c2ccccc2)C1=O [Compound 75, 6-chloro-N-(((3S,5S)-3-hexyl-2-oxo-1-((S)-2-phenylbutyl)-1,4-diazepan-5-yl)methyl)-2-naphthamide]
< 100 | CC[C@H](CN1CC[C@@H](CNC(=O)c2ccc3cc(Cl)ccc3c2)N[C@@H](CCCCO)C1=O)c1ccccc1 [Compound 76, 6-chloro-N-(((3S,5S)-3-(4-hydroxybutyl)-2-oxo-1-((S)-2-phenylbutyl)-1,4-diazepan-5-yl)methyl)-2-naphthamide]

Further lines, the compound ahead of its results:

SMILES | IC50 [nM]
O=C(/C=C/c1ccc(Cl)cc1)NC[C@@H]1CCN(CC(c2ccccc2)c2ccccc2)C(=O)[C@H](Cc2ccccn2)N1 [Compound 45, (E)-3-(4-chlorophenyl)-N-(((3S,5S)-1-(2,2-diphenylethyl)-2-oxo-3-(pyridin-2-ylmethyl)-1,4-diazepan-5-yl)methyl)acrylamide] | < 10000
O=C(NC[C@@H]1CCN(CC(c2ccccc2)c2ccccc2)C(=O)[C@H](Cc2cccnc2)N1)c1ccc2ccccc2c1 [Compound 47, N-(((3S,5S)-1-(2,2-diphenylethyl)-2-oxo-3-(pyridin-3-ylmethyl)-1,4-diazepan-5-yl)methyl)-2-naphthamide] | < 1000
O=C(NC[C@@H]1CCN(CC(c2ccccc2)c2ccccc2)C(=O)[C@H](Cc2ccncc2)N1)c1ccc2ccccc2c1 [Compound 48, N-(((3S,5S)-1-(2,2-diphenylethyl)-2-oxo-3-(pyridin-4-ylmethyl)-1,4-diazepan-5-yl)methyl)-2-naphthamide] | < 10000
CCCC[C@@H]1N[C@H](CNC(=O)c2ccc3ccccc3c2)CCN(CC(c2ccccc2)c2ccccc2)C1=O [Compound 49, N-(((3S,5S)-3-butyl-1-(2,2-diphenylethyl)-2-oxo-1,4-diazepan-5-yl)methyl)-2-naphthamide] | < 1000
NC(=O)CC[C@@H]1N[C@H](CNC(=O)c2ccc3ccccc3c2)CCN(CC(c2ccccc2)c2ccccc2)C1=O [Compound 52, N-(((3S,5S)-3-(3-amino-3-oxopropyl)-1-(2,2-diphenylethyl)-2-oxo-1,4-diazepan-5-yl)methyl)-2-naphthamide] | < 1000
O=C(NC[C@@H]1CCN(CC(c2ccccc2)c2ccccc2)C(=O)[C@H](CC2CCCCC2)N1)c1ccc2ccccc2c1 [Compound 53, N-(((3S,5S)-3-(cyclohexylmethyl)-1-(2,2-diphenylethyl)-2-oxo-1,4-diazepan-5-yl)methyl)-2-naphthamide] | < 1000
O=C(NC[C@@H]1CCN(CC(c2ccccc2)c2ccccc2)C(=O)[C@H](CCC(=O)N2CCCCC2)N1)c1ccc2ccccc2c1 [Compound 55, N-(((3S,5S)-1-(2,2-diphenylethyl)-2-oxo-3-(3-oxo-3-(piperidin-1-yl)propyl)-1,4-diazepan-5-yl)methyl)-2-naphthamide] | < 1000
O=C(NC[C@@H]1CCN(CC(c2ccccc2)c2ccccc2)C(=O)[C@H](CCc2ccccc2)N1)c1ccc2ccccc2c1 [Compound 57, N-(((3S,5S)-1-(2,2-diphenylethyl)-2-oxo-3-phenethyl-1,4-diazepan-5-yl)methyl)-2-naphthamide] | < 1000
O=C(/C=C/c1ccc(Cl)cc1)NC[C@@H]1CCN(CC(c2ccccc2)c2ccccc2)C(=O)[C@H](Cc2c[nH]cn2)N1 [Compound 63, (E)-N-(((3S,5S)-3-((1H-imidazol-4-yl)methyl)-1-(2,2-diphenylethyl)-2-oxo-1,4-diazepan-5-yl)methyl)-3-(4-chlorophenyl)acrylamide] | < 10000
O=C(/C=C/c1ccc(Cl)cc1)NC[C@@H]1CCN(CC(c2ccccc2)c2ccccc2)C(=O)[C@H](CC(=O)Nc2ccccn2)N1 [Compound 64, (E)-3-(4-chlorophenyl)-N-(((3S,5S)-1-(2,2-diphenylethyl)-2-oxo-3-(2-oxo-2-(pyridin-2-ylamino)ethyl)-1,4-diazepan-5-yl)methyl)acrylamide] | < 1000
CC[C@H](CN1CC[C@@H](CNC(=O)c2ccc(Cl)c(Cl)c2)N[C@@H](CCC(=O)N2CCCCC2)C1=O)c1ccccc1 [Compound 67, 3,4-dichloro-N-(((3S,5S)-2-oxo-3-(3-oxo-3-(piperidin-1-yl)propyl)-1-((S)-2-phenylbutyl)-1,4-diazepan-5-yl)methyl)benzamide] | < 10000
Nc1ccccc1C[C@@H]1N[C@H](CNC(=O)c2ccc3ccccc3c2)CCN(CC(c2ccccc2)c2ccccc2)C1=O [Compound 69, N-(((3S,5S)-3-(2-aminobenzyl)-1-(2,2-diphenylethyl)-2-oxo-1,4-diazepan-5-yl)methyl)-2-naphthamide] | < 1000
O=C(NC[C@@H]1CCN(CC(c2ccccc2)c2ccccc2)C(=O)[C@H](Cc2ccccc2N2CCCCC2)N1)c1ccc2ccccc2c1 [Compound 71, N-(((3S,5S)-1-(2,2-diphenylethyl)-2-oxo-3-(2-(piperidin-1-yl)benzyl)-1,4-diazepan-5-yl)methyl)-2-naphthamide] | < 10000
CC[C@H](CN1CC[C@@H](CNC(=O)c2ccc3ccccc3c2)N[C@@H](CCC(=O)NC2CCCCC2)C1=O)c1ccccc1 [Compound 73, N-(((3S,5S)-3-(3-(cyclohexylamino)-3-oxopropyl)-2-oxo-1-((S)-2-phenylbutyl)-1,4-diazepan-5-yl)methyl)-2-naphthamide] | < 1000
CC[C@H](CN1CC[C@@H](CNC(=O)c2ccc3cc(Cl)ccc3c2)N[C@@H](CCOC)C1=O)c1ccccc1 [Compound 77, 6-chloro-N-(((3S,5S)-3-(2-methoxyethyl)-2-oxo-1-((S)-2-phenylbutyl)-1,4-diazepan-5-yl)methyl)-2-naphthamide] | < 100
CC[C@H](CN1CC[C@@H](CNC(=O)c2ccc3cc(Cl)ccc3c2)N[C@@H](CCOCc2ccccc2)C1=O)c1ccccc1 [Compound 78, N-(((3S,5S)-3-(2-(benzyloxy)ethyl)-2-oxo-1-((S)-2-phenylbutyl)-1,4-diazepan-5-yl)methyl)-6-chloro-2-naphthamide] | < 10000
CC[C@H](CN1CC[C@@H](CNC(=O)c2ccc3cc(Cl)ccc3c2)N[C@@H](CC(C)C)C1=O)c1ccccc1 [Compound 79, 6-chloro-N-(((3S,5S)-3-isobutyl-2-oxo-1-((S)-2-phenylbutyl)-1,4-diazepan-5-yl)methyl)-2-naphthamide] | < 10000

Source: patent publication US8440653B2, “3-substituted-1,4-diazepan-2-one melanocortin-5 receptor antagonists” (Mimetica Pty Ltd, priority 2008, dated 2013)
